In patent US20100016371A1, “Indole Compounds” (Glaxo Group Limited, priority 2006, published 2010):

Experiments:
human EP1 receptor = molecular target: T1, human EP1 receptor (Homo sapiens, UniProt P34995); assay: human EP1 calcium mobilisation assay (FLIPR, CHO-K1 cells); format: cell-based; details: antagonism of PGE2-induced calcium mobilisation, CHO-K1 cells expressing EP1; averages of a number of experiments; read-out: functional pKi (converted)
T1 construct: expressed in transfected cells; host or cells: CHO-K1 cells, pCIN vector
T1 sequence (P34995 1-402): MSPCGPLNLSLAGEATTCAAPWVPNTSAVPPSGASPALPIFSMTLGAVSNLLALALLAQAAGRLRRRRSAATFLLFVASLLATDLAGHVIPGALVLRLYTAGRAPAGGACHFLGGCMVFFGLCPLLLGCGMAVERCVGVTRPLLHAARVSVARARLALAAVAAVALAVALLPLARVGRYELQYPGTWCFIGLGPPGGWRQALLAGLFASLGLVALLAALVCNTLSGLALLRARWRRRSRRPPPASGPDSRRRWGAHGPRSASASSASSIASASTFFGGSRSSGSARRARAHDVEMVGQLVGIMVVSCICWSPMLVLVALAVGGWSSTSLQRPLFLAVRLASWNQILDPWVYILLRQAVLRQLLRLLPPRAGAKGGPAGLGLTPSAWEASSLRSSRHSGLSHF
Procedure: (§1) Biological Activity at EP1 and EP3 Receptors
(§2) Briefly, the antagonist properties of compounds are assessed by their ability to inhibit the mobilisation of intracellular calcium ([Ca^2+]i) in response to activation of EP1 or EP3 receptors by the natural agonist hormone prostaglandin E2 (PGE2). Increasing concentrations of antagonist reduce the amount of calcium that a given concentration of PGE2 can mobilise. The net effect is to displace the PGE2 concentration-effect curve to higher concentrations of PGE2. The amount of calcium produced is assessed using a calcium-sensitive fluorescent dye such as Fluo-4, AM and a suitable instrument such as a Fluorimetric Imaging Plate Reader (FLIPR). Increasing amounts of [Ca^2+]i produced by receptor activation increase the amount of fluorescence produced by the dye and give rise to an increasing signal. The signal may be detected using the FLIPR instrument and the data generated may be analysed with suitable curve-fitting software.
The human EP1 or EP3 calcium mobilisation assay (hereafter referred to as ‘the calcium assay’) utilises Chinese hamster ovary-K1 (CHO-K1) cells into which a stable (pCIN; BioTechniques 20(1996): 102-110) vector containing either EP1 or EP3 cDNA has previously been transfected. Cells are cultured in suitable flasks containing culture medium such as DMEM:F-12 supplemented with 10% v/v foetal calf serum, 2 mM L-glutamine, 0.25 mg/ml geneticin, 100 μM flurbiprofen and 10 μg/ml puromycin.
For assay, cells are harvested using a proprietary reagent that dislodges cells such as Versene. Cells are re-suspended in a suitable quantity of fresh culture media for introduction into a 384-well plate. Following incubation for 24 hours at 37° C. the culture media is replaced with a medium containing Fluo-4 and the detergent pluronic acid, and a further incubation takes place. Concentrations of compounds are then added to the plate in order to construct concentration-effect curves. This may be performed on the FLIPR in order to assess the agonist properties of the compounds. Concentrations of PGE2 are then added to the plate in order to assess the antagonist properties of the compounds.
The data so generated may be analysed by means of a computerised curve-fitting routine. The concentration of compound that elicits a half-maximal inhibition of the calcium mobilisation induced by PGE2 (pIC50) may then be estimated.

[1] = molecular target: T2, human prostanoid EP1 receptor (Homo sapiens, UniProt P34995); assay: Binding assay for the human prostanoid EP1 receptor (competition with [3H]-PGE2); details: [3H]-PGE2 competition, CHO-K1 cell membranes; averages of a number of experiments
T2 construct: expressed in transfected cells; host or cells: CHO-K1 cells, membrane fraction
T2 sequence (P34995 1-402): T1 sequence (P34995 1-402)
Procedure: Binding Assay for the Human Prostanoid EP1 Receptor
Competition assay using [^3H]-PGE2
Compound potencies are determined using a radioligand binding assay. In this assay compound potencies are determined from their ability to compete with tritiated prostaglandin E2 ([^3H]-PGE2) for binding to the human EP1 receptor.
This assay utilises Chinese hamster ovary-K1 (CHO-K1) cells into which a stable vector containing the EP1 cDNA has previously been transfected. Cells are cultured in suitable flasks containing culture medium such as DMEM:F-12 supplemented with 10% v/v foetal calf serum, 2 mM L-glutamine, 0.25 mg/ml geneticin, […] puromycin and 10 μM indomethacin.
Cells are detached from the culture flasks by incubation in calcium and magnesium free phosphate buffered saline containing 1 mM disodium ethylenediaminetetraacetic acid (Na2EDTA) and 10 μM indomethacin for 5 min. The cells are isolated by centrifugation at 250×g for 5 mins and suspended in an ice cold buffer such as 50 mM Tris, 1 mM Na2EDTA, 140 mM NaCl, 10 μM indomethacin (pH 7.4). The cells are homogenised using a Polytron tissue disrupter (2×10s burst at full setting), centrifuged at 48,000×g for 20 mins and the pellet containing the membrane fraction is washed (optional) three times by suspension and centrifugation at 48,000×g for 20 mins. The final membrane pellet is suspended in an assay buffer such as 10 mM 2-[N-morpholino]ethanesulphonic acid, 1 mM Na2EDTA,10 mM MgCl2 (pH 6). Aliquots are frozen at −80° C. until required.
For the binding assay the cell membranes, competing compounds and [^3H]-PGE2 (3 nM final assay concentrations are incubated in a final volume of 100 μl for 30 min at 30° C. All reagents are prepared in assay buffer. Reactions are terminated by rapid vacuum filtration over GF/B filters using a Brandell cell harvester. The filters are washed with ice cold assay buffer, dried and the radioactivity retained on the filters is measured by liquid scintillation counting in Packard TopCount scintillation counter.
The data are analysed using non linear curve fitting techniques to determine the concentration of compound producing 50% inhibition of specific binding (IC50).

human EP3 receptor = molecular target: T3, human EP3 receptor (Homo sapiens, UniProt P43115); assay: human EP3 calcium mobilisation assay (FLIPR, CHO-K1 cells); format: cell-based; details: antagonism of PGE2-induced calcium mobilisation, CHO-K1 cells expressing EP3; averages of a number of experiments; read-out: functional pKi (converted)
T3 construct: expressed in transfected cells; host or cells: CHO-K1 cells, pCIN vector
T3 sequence (P43115 1-390): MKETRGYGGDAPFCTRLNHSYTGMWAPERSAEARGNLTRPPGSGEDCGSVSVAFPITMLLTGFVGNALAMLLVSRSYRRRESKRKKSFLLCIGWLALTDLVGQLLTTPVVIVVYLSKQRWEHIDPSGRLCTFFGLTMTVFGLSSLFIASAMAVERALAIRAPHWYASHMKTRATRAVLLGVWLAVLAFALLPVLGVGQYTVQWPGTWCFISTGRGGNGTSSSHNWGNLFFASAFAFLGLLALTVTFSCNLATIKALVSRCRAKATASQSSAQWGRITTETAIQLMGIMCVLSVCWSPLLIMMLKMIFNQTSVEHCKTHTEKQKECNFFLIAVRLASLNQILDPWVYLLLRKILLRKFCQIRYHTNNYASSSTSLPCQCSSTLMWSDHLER
Procedure: as §1
as §2, with “software. […]” for “software.”
For assay, cells are harvested using a proprietary reagent that dislodges cells such as Versene. Cells are re-suspended in a suitable quantity of fresh culture media for introduction into a 384-well plate. […]
The data so generated may be analysed by means of a computerised curve-fitting routine. […]

| Ki (human EP1 receptor) | IC50 [1] | Ki (human EP3 receptor) | Structure (SMILES) |
| --- | --- | --- | --- |
| ≤ 100 nM | ≤ 100 nM | – | CCCc1cn(-c2nc(C(=O)O)cs2)c2cc(Cl)ccc12 [Example 1, 2-(6-Chloro-3-propyl-1H-indol-1-yl)-1,3-thiazole-4-carboxylic acid] |
| ≤ 100 nM | ≤ 100 nM | – | CC(C)(C)CCc1cn(-c2nc(C(=O)O)cs2)c2cc(Cl)ccc12 [Example 2, 2-[6-Chloro-3-(3,3-dimethylbutyl)-1H-indol-1-yl]-1,3-thiazole-4-carboxylic acid] |
| ≤ 100 nM | ≤ 100 nM | – | CC(C)c1cn(-c2nc(C(=O)O)cs2)c2cc(Cl)ccc12 [Example 3, 2-[6-Chloro-3-(1-methylethyl)-1H-indol-1-yl]-1,3-thiazole-4-carboxylic acid] |
| ≤ 100 nM | ≤ 100 nM | – | CC(C)Cc1cn(-c2nc(C(=O)O)cs2)c2cc(Br)ccc12 [Example 4, 2-[6-Bromo-3-(2-methylpropyl)-1H-indol-1-yl]-1,3-thiazole-4-carboxylic acid] |
| ≤ 100 nM | ≤ 100 nM | – | CC(C)Cc1cn(-c2nc(C(=O)O)co2)c2cc(Cl)ccc12 [Example 5, 2-[6-Chloro-3-(2-methylpropyl)-1H-indol-1-yl]-1,3-oxazole-4-carboxylic acid] |
| ≤ 100 nM | ≤ 100 nM | – | CC(C)Cc1cn(Cc2nc(C(=O)O)cs2)c2cc(Cl)ccc12 [Example 6, 2-{[6-Chloro-3-(2-methylpropyl)-1H-indol-1-yl]methyl}-1,3-thiazole-4-carboxylic acid] |
| ≤ 100 nM | – | ≥ 2000 nM | CC(C)C(=O)c1cn(-c2nc(C(=O)O)cs2)c2cc(Cl)ccc12 [Example 7, 2-[6-Chloro-3-(2-methylpropanoyl)-1H-indol-1-yl]-1,3-thiazole-4-carboxylic acid] |
| ≤ 100 nM | – | – | O=C(O)c1csc(-n2cc(Cc3ccccc3)c3ccc(Cl)cc32)n1 [Example 8, 2-[6-Chloro-3-(phenylmethyl)-1H-indol-1-yl]-1,3-thiazole-4-carboxylic acid] |
| ≤ 100 nM | – | – | CC(C)Cc1cn(-c2nc(C(=O)O)cs2)c2ccccc12 [Example 10, 2-[3-(2-Methylpropyl)-1H-indol-1-yl]-1,3-thiazole-4-carboxylic acid] |
| ≤ 100 nM | ≤ 100 nM | – | CC(C)Cc1nn(-c2nc(C(=O)O)cs2)c2cc(Cl)ccc12 [Example 11, 2-[6-Chloro-3-(2-methylpropyl)-1H-indazol-1-yl]-1,3-thiazole-4-carboxylic acid] |
| ≤ 100 nM | ≤ 100 nM | – | CC(C)(C)Cc1cn(-c2nc(C(=O)O)cs2)c2cc(Cl)ccc12 [Example 12, 2-[6-Chloro-3-(2,2-dimethylpropyl)-1H-indol-1-yl]-1,3-thiazole-4-carboxylic acid] |
| ≤ 100 nM | ≤ 100 nM | – | CC(C)Cc1cn(-c2nc(C(=O)O)cs2)c2cc(C(F)(F)F)ccc12 [Example 13, 2-[3-(2-Methylpropyl)-6-(trifluoromethyl)-1H-indol-1-yl]-1,3-thiazole-4-carboxylic acid] |
| ≤ 100 nM | – | – | CC(C)Cc1cn(-c2nc(CC(=O)O)cs2)c2cc(Cl)ccc12 [Example 15, {2-[6-Chloro-3-(2-methylpropyl)-1H-indol-1-yl]-1,3-thiazol-4-yl}acetic acid] |
| ≤ 100 nM | ≤ 100 nM | – | CC(C)Cc1cn(-c2nc(C(=O)O)cs2)c2cc(F)ccc12 [Example 16, 2-[6-Fluoro-3-(2-methylpropyl)-1H-indol-1-yl]-1,3-thiazole-4-carboxylic acid] |
| ≤ 100 nM | ≤ 100 nM | – | CC(C)Cc1cn(-c2nc(C(=O)O)cs2)c2cc(Cl)ccc12 [Example 17, 2-[6-Chloro-3-(2-methylpropyl)-1H-indol-1-yl]-1,3-thiazole-4-carboxylic acid] |
| ≤ 100 nM | ≤ 100 nM | – | CC(C)Cc1cn(-c2ccc(C(=O)O)o2)c2cc(Cl)ccc12 [Example 18, 5-[6-Chloro-3-(2-methylpropyl)-1H-indol-1-yl]-2-furancarboxylic acid] |
| ≤ 100 nM | ≤ 100 nM | – | CC(C)Cc1cn(-c2cccc(C(=O)O)n2)c2cc(Cl)ccc12 [Example 19, 6-[6-Chloro-3-(2-methylpropyl)-1H-indol-1-yl]-2-pyridinecarboxylic acid] |
| ≤ 100 nM | – | ≥ 2000 nM | CCc1cn(-c2nc(C(=O)O)cs2)c2cc(Cl)ccc12 [Example 20, 2-(6-Chloro-3-ethyl-1H-indol-1-yl)-1,3-thiazole-4-carboxylic acid] |
| ≤ 100 nM | ≤ 100 nM | – | CC(C)Cc1cn(-c2ncc(C(=O)O)s2)c2cc(Cl)ccc12 [Example 21, 2-[6-Chloro-3-(2-methylpropyl)-1H-indol-1-yl]-1,3-thiazole-5-carboxylic acid] |
| ≤ 100 nM | ≤ 100 nM | – | CC(C)Cc1cn(-c2ccc(C(=O)O)s2)c2cc(Cl)ccc12 [Example 22, 5-[6-Chloro-3-(2-methylpropyl)-1H-indol-1-yl]-2-thiophenecarboxylic acid] |
| ≤ 100 nM | ≤ 100 nM | – | CC(C)Cc1cn(-c2nc(C(=O)NS(=O)(=O)c3ccccc3)cs2)c2cc(Cl)ccc12 [Example 23, 2-[6-Chloro-3-(2-methylpropyl)-1H-indol-1-yl]-N-(phenylsulfonyl)-1,3-thiazole-4-carboxamide] |
| ≤ 100 nM | ≤ 100 nM | – | Cc1ccc2c(CC(C)C)cn(-c3nc(C(=O)O)cs3)c2c1 [Example 24] |
